Assay results as given in US12049518B2, “Pharmacokinetics and cholecystokinin-2 receptor (CCK2R) targeting for diagnosis and therapy” (Medizinische Universitat Innsbruck, priority 2017, dated 2024).
Where a SMILES comes first, the peptide text is derived from it. [ ]: non-standard residue; d: D form. The star is where a group is joined. DOTA = O=C(O)CN1CCN(CC(=O)O)CCN(CC(=O)*)CCN(CC(=O)O)CC1; 1Nal = N[C@@H](Cc1cccc2ccccc12)C(=O)O; NMeNle = CCCC[C@H](NC)C(=O)O

Key:
[1] = system: serum proteins; test: protein binding to serum proteins (Sephadex G-50 size-exclusion chromatography); type: in vitro ADME; conditions: 37° C.; for fraction unbound at 4 h, 500 pmol/mL / fraction unbound at 24 h, 500 pmol/mL: fresh human serum; for fraction unbound at 4 h, 500 pmol/mL: read-out: Percentage of radioligand bound to serum proteins after 4 h incubation (converted); for fraction unbound at 24 h, 500 pmol/mL: read-out: Percentage of radioligand bound to serum proteins after 24 h incubation (converted)
Protocol: Additionally, protein binding to serum proteins was investigated. For this purpose the ^111In-labelled peptidomimetics were incubated in duplicates in fresh human serum at 37° C. (500 pmol/mL) and analyzed after 4 and 24 h by Sephadex G-50 size-exclusion chromatography (GE Healthcare Illustra, Little Chalfont, UK). The percentage of protein binding was determined by measuring the column and the eluate in a 2480 Wizard 2 automatic gamma-counter (Perkin Elmer Life Sciences and Analytical Sciences, Turku, F).

[2] = stability in vivo (radio-HPLC of blood sample); conditions: BALB/c mice, i.v.
Protocol: To further characterise the stability of the radiolabelled peptidomimetics in vivo, metabolic studies were carried out in 5-6-week-old female BALB/c mice (Charles River, Sulzfeld, Germany) injected intravenously with the ^111In- and […] peptidomimetics. All animal experiments were conducted in compliance with the Austrian animal protection laws and with the approval of the Austrian Ministry of Science. To allow monitoring of the metabolites by radio-HPLC, mice were injected with a higher amount of radioactivity (5-15 MBq ^111In and 20-40 MBq ^177Lu, corresponding to 1-2 nmol total peptide) through a lateral tail vein and euthanized by cervical dislocation 10 or 30 min post injection (p.i.). A sample of blood was collected and the degradation was assessed by radio-HPLC.

Compound	fraction unbound at 24 h, 500 pmol/mL ([1]; 24 h)	intact radioligand present in the blood at 10 min p.i. [2] [%]	intact radioligand present in the blood at 30 min p.i. [2] [%]	further results
CSCC[C@H](NC(=O)[C@H](Cc1c[nH]c2ccccc12)NC(=O)CNC(=O)[C@H](Cc1ccc(O)cc1)NC(=O)[C@H](C)NC(=O)[C@@H](CCC(=O)O)NC(=O)CN1CCN(CC(=O)O)CCN(CC(=O)O)CCN(CC(=O)O)CC1)C(=O)N[C@@H](CC(=O)O)C(=O)N[C@@H](Cc1cccc2ccccc12)C(N)=O [^111In-DOTA-MGS1, ^111In-DOTA-DGlu-Ala-Tyr-Gly-Trp-Met-Asp-1Nal-NH2, metal not drawn, reference compound] ({DOTA}-[dE]AYGWMD[1Nal]-NH2)	0.712	–	–	fraction unbound at 4 h, 500 pmol/mL [1]: 0.8
CCCC[C@@H](C(=O)N[C@@H](CC(=O)O)C(=O)N(C)[C@@H](Cc1ccccc1)C(N)=O)N(C)C(=O)[C@H](Cc1c[nH]c2ccccc12)NC(=O)CNC(=O)[C@H](Cc1ccc(O)cc1)NC(=O)[C@H](C)NC(=O)[C@@H](CCC(=O)O)NC(=O)CN1CCN(CC(=O)O)CCN(CC(=O)O)CCN(CC(=O)O)CC1 [^111In-DOTA-MGS4, ^111In-DOTA-DGlu-Ala-Tyr-Gly-Trp-(N-Me)Nle-Asp-(N-Me)Phe-NH2, metal not drawn, reference compound]	0.881	–	–	fraction unbound at 4 h, 500 pmol/mL [1]: 0.911; Percentage of radioligand bound to serum proteins after 24 h incubation ([1]; human serum, 24 h): ~12%
CCCC[C@@H](C(=O)N[C@@H](CC(=O)O)C(=O)N[C@@H](Cc1cccc2ccccc12)C(N)=O)N(C)C(=O)[C@H](Cc1c[nH]c2ccccc12)NC(=O)CNC(=O)[C@H](Cc1ccc(O)cc1)NC(=O)[C@@H]1CCCN1C(=O)[C@@H](CCC(=O)O)NC(=O)CN1CCN(CC(=O)O)CCN(CC(=O)O)CCN(CC(=O)O)CC1 [^111In-DOTA-MGS8, metal not drawn] ({DOTA}-[dE]PYGW[NMeNle]D[1Nal]-NH2)	–	80.0±5.2	–	–
CCCC[C@@H](C(=O)N[C@@H](CC(=O)O)C(=O)N[C@@H](Cc1cccc2ccccc12)C(N)=O)N(C)C(=O)[C@H](Cc1c[nH]c2ccccc12)NC(=O)[C@@H]1CCCN1C(=O)[C@H](Cc1ccc(O)cc1)NC(=O)[C@H](C)NC(=O)[C@@H](CCC(=O)O)NC(=O)CN1CCN(CC(=O)O)CCN(CC(=O)O)CCN(CC(=O)O)CC1 [^111In-DOTA-MGS12, metal not drawn] ({DOTA}-[dE]AYPW[NMeNle]D[1Nal]-NH2)	0.541	–	–	–
CCCC[C@@H](C(=O)N[C@@H](CC(=O)O)C(=O)N[C@@H](Cc1cccc2ccccc12)C(N)=O)N(C)C(=O)[C@H](Cc1c[nH]c2ccccc12)NC(=O)CNC(=O)[C@H](Cc1ccc(O)cc1)NC(=O)[C@H](C)NC(=O)[C@@H](CCC(=O)O)NC(=O)CN1CCN(CC(=O)O)CCN(CC(=O)O)CCN(CC(=O)O)CC1 [^177Lu-DOTA-MGS5, metal not drawn]	–	85.9	77.0	–
CCCC[C@@H](C(=O)N[C@@H](CC(=O)O)C(=O)N[C@@H](Cc1cccc2ccccc12)C(N)=O)N(C)C(=O)[C@H](Cc1c[nH]c2ccccc12)NC(=O)CNC(=O)[C@H](Cc1ccc(O)cc1)NC(=O)[C@@H]1CCCN1C(=O)[C@@H](CCC(=O)O)NC(=O)CN1CCN(CC(=O)O)CCN(CC(=O)O)CCN(CC(=O)O)CC1 [^177Lu-DOTA-MGS8, metal not drawn] ({DOTA}-[dE]PYGW[NMeNle]D[1Nal]-NH2)	–	80.5	56.8	–
CSCC[C@H](NC(=O)[C@H](Cc1c[nH]c2ccccc12)NC(=O)CNC(=O)[C@H](Cc1ccc(O)cc1)NC(=O)[C@H](C)NC(=O)[C@@H](CCC(=O)O)NC(=O)[C@@H](CCC(=O)O)NC(=O)[C@@H](CCC(=O)O)NC(=O)[C@@H](CCC(=O)O)NC(=O)[C@@H](CCC(=O)O)NC(=O)[C@@H](CCC(=O)O)NC(=O)CN1CCN(CC(=O)O)CCN(CC(=O)O)CCN(CC(=O)O)CC1)C(=O)N[C@@H](CC(=O)O)C(=O)N[C@@H](Cc1ccccc1)C(N)=O [^177Lu-PP-F11, metal not drawn, reference compound]	–	–	5.5	–
